± gives the uncertainty stated by the source.
Test: xn = mol fraction of the nth substance listed

Question: What does the source list for `NCC(O)CO` (stereo not given) + CC[n+]1ccn(C)c1.[Cl-]?
Answer: viscosity (298.15 K, 101 kPa, x2 = 0.667): 321 ± 17 mPa·s; viscosity (303.15 K, 101 kPa, x2 = 0.667): 230 ± 11 mPa·s; viscosity (313.15 K, 101 kPa, x2 = 0.667): 125.5 ± 5.7 mPa·s; viscosity (323.15 K, 101 kPa, x2 = 0.667): 70.2 ± 3 mPa·s; viscosity (333.15 K, 101 kPa, x2 = 0.667): 44.6 ± 1.9 mPa·s

Question: With `CCCC[n+]1ccn(C)c1.[Br-]` + CCCOCCO as the molecule, how does the viscosity (298.15 K, 100 kPa, x1 = 0.1001) read?
Answer: 15.5 ± 1.7 mPa·s

Question: And the viscosity (298.15 K, 100 kPa, x1 = 0.2003)?
Answer: 50 ± 5.2 mPa·s

Question: What about the viscosity (298.15 K, 100 kPa, x1 = 0.2994) of the same molecule?
Answer: 100 ± 10 mPa·s

Question: And the viscosity (298.15 K, 100 kPa, x1 = 0.4)?
Answer: 152 ± 16 mPa·s

Question: What about the viscosity (298.15 K, 100 kPa, x1 = 0.5002) of the same molecule?
Answer: 204 ± 22 mPa·s

Question: What about the viscosity (298.15 K, 100 kPa, x1 = 0.6002) of the same molecule?
Answer: 270 ± 29 mPa·s

Question: And the viscosity (298.15 K, 100 kPa, x1 = 0.701)?
Answer: 378 ± 42 mPa·s

Question: And the viscosity (298.15 K, 100 kPa, x1 = 0.7969)?
Answer: 560 ± 64 mPa·s

Question: What about the viscosity (298.15 K, 100 kPa, x1 = 0.9003) of the same molecule?
Answer: 910 ± 110 mPa·s

Question: What about the viscosity (298.15 K, 100 kPa, x1 = 1) of the same molecule?
Answer: 1451 ± 180 mPa·s

Question: What about the viscosity (303.15 K, 100 kPa, x1 = 0.1001) of the same molecule?
Answer: 10.3 ± 1.1 mPa·s

Question: And the viscosity (303.15 K, 100 kPa, x1 = 0.2003)?
Answer: 28.9 ± 3 mPa·s

Question: What about the viscosity (303.15 K, 100 kPa, x1 = 0.2994) of the same molecule?
Answer: 53.7 ± 5.6 mPa·s

Question: What about the viscosity (303.15 K, 100 kPa, x1 = 0.4) of the same molecule?
Answer: 81.1 ± 8.5 mPa·s

Question: And the viscosity (303.15 K, 100 kPa, x1 = 0.5002)?
Answer: 110 ± 12 mPa·s

Question: And the viscosity (303.15 K, 100 kPa, x1 = 0.6002)?
Answer: 148 ± 16 mPa·s

Question: And the viscosity (303.15 K, 100 kPa, x1 = 0.701)?
Answer: 206 ± 22 mPa·s

Question: And the viscosity (303.15 K, 100 kPa, x1 = 0.7969)?
Answer: 305 ± 34 mPa·s

Question: And the viscosity (303.15 K, 100 kPa, x1 = 0.9003)?
Answer: 503 ± 58 mPa·s

Question: What about the viscosity (303.15 K, 100 kPa, x1 = 1) of the same molecule?
Answer: 837 ± 99 mPa·s

Question: What about the viscosity (308.15 K, 100 kPa, x1 = 0.1001) of the same molecule?
Answer: 7.54 ± 0.78 mPa·s

Question: What about the viscosity (308.15 K, 100 kPa, x1 = 0.2003) of the same molecule?
Answer: 19.1 ± 2 mPa·s

Question: What about the viscosity (308.15 K, 100 kPa, x1 = 0.2994) of the same molecule?
Answer: 35.1 ± 3.6 mPa·s

Question: And the viscosity (308.15 K, 100 kPa, x1 = 0.4)?
Answer: 52 ± 5.3 mPa·s

Question: What about the viscosity (308.15 K, 100 kPa, x1 = 0.5002) of the same molecule?
Answer: 69.9 ± 7.2 mPa·s

Question: What about the viscosity (308.15 K, 100 kPa, x1 = 0.6002) of the same molecule?
Answer: 92.1 ± 9.6 mPa·s

Question: And the viscosity (308.15 K, 100 kPa, x1 = 0.701)?
Answer: 126 ± 13 mPa·s

Question: What about the viscosity (308.15 K, 100 kPa, x1 = 0.7969) of the same molecule?
Answer: 180 ± 19 mPa·s

Question: What about the viscosity (308.15 K, 100 kPa, x1 = 0.9003) of the same molecule?
Answer: 293 ± 32 mPa·s

Question: And the viscosity (308.15 K, 100 kPa, x1 = 1)?
Answer: 506 ± 57 mPa·s

Question: And the viscosity (313.15 K, 100 kPa, x1 = 0.1001)?
Answer: 6 ± 0.62 mPa·s

Question: And the viscosity (313.15 K, 100 kPa, x1 = 0.2003)?
Answer: 14.5 ± 1.5 mPa·s

Question: What about the viscosity (313.15 K, 100 kPa, x1 = 0.2994) of the same molecule?
Answer: 25.9 ± 2.7 mPa·s

Question: And the viscosity (313.15 K, 100 kPa, x1 = 0.4)?
Answer: 37 ± 3.8 mPa·s

Question: What about the viscosity (313.15 K, 100 kPa, x1 = 0.5002) of the same molecule?
Answer: 48.8 ± 5 mPa·s

Question: What about the viscosity (313.15 K, 100 kPa, x1 = 0.6002) of the same molecule?
Answer: 61.7 ± 6.4 mPa·s

Question: What about the viscosity (313.15 K, 100 kPa, x1 = 0.701) of the same molecule?
Answer: 81.8 ± 8.5 mPa·s

Question: And the viscosity (313.15 K, 100 kPa, x1 = 0.7969)?
Answer: 114 ± 12 mPa·s

Question: And the viscosity (313.15 K, 100 kPa, x1 = 0.9003)?
Answer: 184 ± 20 mPa·s

Question: What about the viscosity (313.15 K, 100 kPa, x1 = 1) of the same molecule?
Answer: 330 ± 37 mPa·s

Question: What does the source list for `COCCn1cc[n+](C)c1.N#C[S-]` + O=C1CCCO1?
Answer: electrical conductivity (288.15 K, 101 kPa, x1 = 0.7036): 0.526 ± 0.011 S/m; viscosity (288.15 K, 101 kPa, x1 = 0.7036): 34.8 ± 7 mPa·s; electrical conductivity (288.15 K, 101 kPa, x1 = 1): 0.223 ± 0.005 S/m; viscosity (288.15 K, 101 kPa, x1 = 1): 86 ± 17 mPa·s; electrical conductivity (293.15 K, 101 kPa, x1 = 0.8038): 0.505 ± 0.01 S/m; viscosity (293.15 K, 101 kPa, x1 = 0.8038): 39.2 ± 7.8 mPa·s; electrical conductivity (298.15 K, 101 kPa, x1 = 0.3001): 1.63 ± 0.033 S/m; viscosity (298.15 K, 101 kPa, x1 = 0.3001): 4.18 ± 0.84 mPa·s; electrical conductivity (298.15 K, 101 kPa, x1 = 1): 0.41 ± 0.008 S/m; viscosity (298.15 K, 101 kPa, x1 = 1): 53 ± 11 mPa·s; electrical conductivity (303.15 K, 101 kPa, x1 = 0.3001): 1.8 ± 0.036 S/m; viscosity (303.15 K, 101 kPa, x1 = 0.3001): 3.68 ± 0.74 mPa·s; electrical conductivity (308.15 K, 101 kPa, x1 = 0.6015): 1.36 ± 0.027 S/m; viscosity (308.15 K, 101 kPa, x1 = 0.6015): 9.6 ± 1.9 mPa·s; electrical conductivity (308.15 K, 101 kPa, x1 = 0.9012): 0.791 ± 0.016 S/m; viscosity (308.15 K, 101 kPa, x1 = 0.9012): 27.2 ± 5.4 mPa·s; electrical conductivity (313.15 K, 101 kPa, x1 = 0.1027): 1.99 ± 0.04 S/m; viscosity (313.15 K, 101 kPa, x1 = 0.1027): 1.82 ± 0.36 mPa·s; electrical conductivity (313.15 K, 101 kPa, x1 = 0.5006): 1.79 ± 0.036 S/m; viscosity (313.15 K, 101 kPa, x1 = 0.5006): 5.6 ± 1.1 mPa·s; electrical conductivity (313.15 K, 101 kPa, x1 = 0.7036): 1.33 ± 0.027 S/m; viscosity (313.15 K, 101 kPa, x1 = 0.7036): 11.8 ± 2.4 mPa·s; electrical conductivity (318.15 K, 101 kPa, x1 = 0.3001): 2.44 ± 0.049 S/m; viscosity (318.15 K, 101 kPa, x1 = 0.3001): 2.59 ± 0.52 mPa·s; electrical conductivity (318.15 K, 101 kPa, x1 = 0.4001): 2.25 ± 0.045 S/m; viscosity (318.15 K, 101 kPa, x1 = 0.4001): 3.46 ± 0.69 mPa·s; electrical conductivity (323.15 K, 101 kPa, x1 = 0.1999): 2.68 ± 0.054 S/m; viscosity (323.15 K, 101 kPa, x1 = 0.1999): 1.85 ± 0.37 mPa·s; electrical conductivity (323.15 K, 101 kPa, x1 = 0.4001): 2.48 ± 0.05 S/m; viscosity (323.15 K, 101 kPa, x1 = 0.4001): 3.1 ± 0.62 mPa·s; electrical conductivity (323.15 K, 101 kPa, x1 = 0.5006): 2.25 ± 0.045 S/m; viscosity (323.15 K, 101 kPa, x1 = 0.5006): 4.26 ± 0.85 mPa·s; electrical conductivity (323.15 K, 101 kPa, x1 = 0.7036): 1.75 ± 0.035 S/m; viscosity (323.15 K, 101 kPa, x1 = 0.7036): 8.8 ± 1.8 mPa·s; electrical conductivity (328.15 K, 101 kPa, x1 = 0.9012): 1.52 ± 0.03 S/m; viscosity (328.15 K, 101 kPa, x1 = 0.9012): 13.9 ± 2.8 mPa·s; viscosity (333.15 K, 101 kPa, x1 = 0.1027): 1.3 ± 0.26 mPa·s; electrical conductivity (338.15 K, 101 kPa, x1 = 0.6015): 2.74 ± 0.055 S/m; viscosity (338.15 K, 101 kPa, x1 = 0.6015): 4.26 ± 0.85 mPa·s; electrical conductivity (338.15 K, 101 kPa, x1 = 0.7036): 2.46 ± 0.049 S/m; viscosity (338.15 K, 101 kPa, x1 = 0.7036): 6 ± 1.2 mPa·s; electrical conductivity (343.15 K, 101 kPa, x1 = 0.5006): 3.3 ± 0.066 S/m; viscosity (343.15 K, 101 kPa, x1 = 0.5006): 2.71 ± 0.54 mPa·s; electrical conductivity (343.15 K, 101 kPa, x1 = 0.7036): 2.7 ± 0.054 S/m; viscosity (343.15 K, 101 kPa, x1 = 0.7036): 5.4 ± 1.1 mPa·s
